# Patent US20240090546A1, “COMPOSITIONS COMPRISING AND METHODS OF USING 1,3-PROPANEDIOL, TO IMPROVE SWEETNESS AND/OR REDUCE BITTERNESS OF SWEETENERS” (Primient Covation LLC, priority 2022, published 2024)
# What was measured:
# Assay type in all cases: in vivo, human
# [1] = tested on: Six panelists experienced in the evaluation of food and beverages; assay: Tasting of sweeteners with and without Zemea USP-FCC propanediol; conditions: sweetener with 5 ppm Zemea USP-FCC Propanediol versus without
# From the text: Six panelists experienced in the evaluation of food and beverages tasted sweeteners and commercial beverages with and without the addition of Zemea USP-FCC propanediol. The six panelists tasted the products and discussed their perceptions of the flavor. They indicated whether the test or control product in each pair was sweeter, less bitter, and/or less sour.
# [2] = tested on: Six panelists experienced in the evaluation of food and beverages; assay: Screening of Zemea USP-FCC at 5, 20 and 100 ppm in reduced sugar stevia sweetened orange juice; conditions: 5 ppm, compared with 20 and 100 ppm and control
# From the text: Six panelists experienced in the evaluation of food and beverages screened Zemea® USP-FCC at 5, 20, and 100 ppm in a reduced sugar stevia sweetened orange juice. The reduced sugar stevia sweetened orange juice containing no Zemea® USP-FCC was used as the control.
# 40 untrained panelists = assay: Paired comparison test for bitterness, reduced sugar stevia sweetened orange juice
# Protocol: Paired comparison tests for bitterness were conducted on 40 untrained panelists. The reduced sugar stevia sweetened orange juice was used as the control and was prepared with 0.0005% Zemea® USP-FCC (5 ppm) as the test variable. The products were served in 2-ounce soufflé cups labeled with 3-digit codes at refrigerated temperatures. The panelists were asked to identify the sample that was more bitter. Bottled water and unsalted crackers were available for panelists to clear their palates before and during testing.
# panelists [3] = assay: Flash profile blind tasting of beverages and bitter substances with Zemea USP-FCC added; conditions: Zemea added at 5-940 ppm to the beverages and bitter substances of Table 1; blind tasting by N>6
# From the text: (§1) • 1. Panelists: Recruit at least 5 and preferably 12 staff who has no allergy to the big 8 food allergens. • 2. Prototypes: • a. Freshly made to same age (<1 week if possible) • b. Serve all samples at same size (>1 oz for beverages), and at same temperature (70F for foods, 40F for beverages) • 3. Random coded (3-digit) and random ordered up to 5 samples • 4. Keep to less than 5 samples per panel session. Less than 4 panels/day. • 5. For each panelist, ship (under covid-19): • a. one set of 5 samples • b. one instruction (this page) ballot (attachment 1) and one example for how to fill in (attachment 2) • c. one bottled water (Aquafina or equivalent, no minerals added. Panelist to bring own under covid-19) • 6. […] Describe the panelists how to blind-taste same day upon receipt according to panelists instruction below. • 8. […] Ask each panelist to scan/send a picture of the filled-in ballot to panel leader. Panel leader will issue a “directional analysis” (1 day) as a minimum and may include PCA (3 days) leading to conclusions and recommendations.
# (§2) Instruction for Flash Profiling Method panelists: • 1. […] Please taste this set mid-morning (9a-N) or mid-afternoon (2-4p) if possible • 3. Arrange the 5 samples in front of you in any order • 4. For the Flash Profiling Method ballot, fill in today's Date, your Name, and Sample (s) as “project xxx-Round x samples” • 5. […]
# panelists [4] = assay: Absolute taste threshold of Zemea USP-FCC PDO in water (flash profile, blind tasting); conditions: at 690 ppm (FEMA #4753 use limit for beverages)
# From the text: as §1, §2
compound,measurement,setting,value
OC[C@@H](O)[C@@H](O)CO [Erythritol],Effect,[1],Enhanced sweetness
O=C(CO)C(O)C(O)C(O)CO (stereo not shown) [Allulose],Effect,[1],Enhanced sweetness
"OCCCO [Zemea® USP-FCC Propanediol, 1,3-propanediol]",bitterness perception,[2],lowest bitterness perception
same,number of 40 untrained panelists who identified the sample as more bitter,"40 untrained panelists; 5 ppm (0.0005%) in stevia-sweetened orange juice, control chosen by 26, one-tailed exact p-value 0.04",14
same,bitterness versus control containing no Zemea USP-FCC,"40 untrained panelists; 5 ppm added directly to reduced sugar orange juice with stevia, p-value 0.04, one-tailed",statistically less bitter
same,bitterness of individual ingredients and beverages,panelists [3],less bitter
same,liking of individual ingredients and beverages,panelists [3],more liked
same,taste of Zemea USP-FCC PDO,panelists [4],tasteless
O=C(CO)[C@@H](O)[C@@H](O)[C@H](O)CO [Tagatose],Effect,[1],Enhanced sweetness
"OC[C@H]1O[C@@](CO)(O[C@H]2O[C@H](CO)[C@@H](O)[C@H](O)[C@H]2O)[C@@H](O)[C@@H]1O [Sucrose, sucrose]",Effect,[1],Enhanced sweetness
